In data set [1] the target is T1, human β3 adrenergic receptor (Homo sapiens, UniProt P13945).
T1 construct: Full length β3 AR clones (402 amino acids) containing the last 6 amino acids of hβ3-AR are prepared; expressed in transfected cells; host or cells: CHO (Chinese hamster ovary) cells
As to the kind of experiment: cAMP (SPA) response in CHO cells transfected with human β3 adrenergic receptor. Also on record: key: fraction of maximal isoproterenol (10^-5 M) response. Conditions: maximal response relative to maximal response of isoproterenol at 10^-5 M. The format is cell-based. The method in brief: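 Reactions were stopped with 0.2N HCl and neutralised, and cAMP was measured by SPA. Activity is expressed as percent of the maximal 10^−5 M isoproterenol response.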

From patent US7022716B2, “Cyclic amine phenyl beta-3 adrenergic receptor agonists” (Wyeth, priority 2000, dated 2006) come the findings set out here.

Where only a bound is given, the exact number is not on record here.

T1 sequence (P13945 whole entry): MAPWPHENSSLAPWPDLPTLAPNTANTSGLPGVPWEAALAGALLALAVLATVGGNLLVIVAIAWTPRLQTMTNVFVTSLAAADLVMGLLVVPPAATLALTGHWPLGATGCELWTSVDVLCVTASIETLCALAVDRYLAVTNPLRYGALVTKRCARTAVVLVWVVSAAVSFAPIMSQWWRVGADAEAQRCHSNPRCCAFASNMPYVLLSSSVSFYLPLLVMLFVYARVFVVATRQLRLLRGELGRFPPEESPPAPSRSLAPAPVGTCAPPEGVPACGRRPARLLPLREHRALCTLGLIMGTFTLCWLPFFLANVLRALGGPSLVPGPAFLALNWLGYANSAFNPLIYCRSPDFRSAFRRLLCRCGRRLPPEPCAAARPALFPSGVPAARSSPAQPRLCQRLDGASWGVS

What is called melting point is the temperature of the solid-liquid transition. As for `CCOC(=O)[C@@H](NC(=O)c1ccc(N2CCC(NC[C@H](O)c3ccc(O)c(NS(C)(=O)=O)c3)CC2)cc1)C(C)C` [Example 202, (2S)-2-(4-{4-[(2R)-2-Hydroxy-2-(4-hydroxy-3-methanesulfonylamino-phenyl)-ethylamino]-piperidin-1-yl}-benzoylamino)-3-methyl-butyric acid ethyl ester], the melting point was > 85 °C (dec.). Moreover, the “IA(β3)” value in data set [1] was 1.2.

Turning to `COC(=O)[C@H](Cc1ccccc1)NC(=O)c1ccc(N2CCC(NC[C@H](O)c3ccc(O)c(NS(C)(=O)=O)c3)CC2)cc1` [Example 204, (2S)-2-(4-{4-[(2R)-2-Hydroxy-2-(4-hydroxy-3-methanesulfonylamino-phenyl)-ethylamino]-piperidin-1-yl}-benzoylamino)-3-phenyl-propionic acid methyl ester], the melting point is > 98 °C (dec.). Also, in data set [1], the “IA(β3)” value is 1.2.

For the molecule `COC(=O)C1(NC(=O)c2ccc(N3CCC(NC[C@H](O)c4ccc(O)c(NS(C)(=O)=O)c4)CC3)cc2)CC1` [Example 206], the melting point was > 110 °C (dec.). For the same molecule, the “IA(β3)” value in data set [1] came out at 0.94.

As to `CCCCN(CC(=O)OCC)C(=O)c1ccc(N2CCC(NC[C@H](O)c3ccc(O)c(NS(C)(=O)=O)c3)CC2)cc1` [Example 207, [Butyl-(4-{4-[(2R)-2-hydroxy-2-(4-hydroxy-3-methanesulfonylamino-phenyl)-ethylamino]-piperidin-1-yl}-benzoyl)-amino]-acetic acid ethyl ester], the melting point was > 60 °C (dec.). The “IA(β3)” value in data set [1] stood at 1.

With `COC(=O)CNC(=O)c1ccc(N2CCC(NC[C@H](O)c3ccc(O)c(NS(C)(=O)=O)c3)CC2)cc1` [Example 208, Methyl[(4-{4-[((2R)-2-hydroxy-2-{4-hydroxy-3-[(methylsulfonyl)amino]phenyl}ethyl)amino]-1-piperidinyl}benzoyl)amino]acetate], the melting point was > 75 °C (dec.). The “IA(β3)” value in data set [1] was 0.97.

For the molecule `COC(=O)[C@H](CC(C)C)NC(=O)c1ccc(N2CCC(NCC(O)c3ccc(O)c(NS(C)(=O)=O)c3)CC2)cc1` (stereo partly drawn) [Example 209, (2S)-2-(4-{4-[2-Hydroxy-2-(4-hydroxy-3-methanesulfonylamino-phenyl)-ethylamino]-piperidin-1-yl}-benzoylamino)-4-methyl-pentanoic acid methyl ester], the melting point is > 90 °C (dec.). Also, the “IA(β3)” value in data set [1] was 1.

On to `CS(=O)(=O)Nc1cc([C@@H](O)CNC2CCN(c3ccc(/C=C/C(=O)O)cc3)CC2)ccc1O` [Example 210, (2E)-3-(4-{4-[(2R)-2-Hydroxy-2-(4-hydroxy-3-methanesulfonylamino-phenyl)-ethylamino]-piperidin-1-yl}-phenyl)-acrylic acid], for which the melting point came out at 220 °C. Further, the “IA(β3)” value in data set [1] is recorded as 1.36.

As to `CC(C)C[C@@H](CO)NC(=O)c1ccc(N2CCC(NC[C@H](O)c3ccc(O)c(NS(C)(=O)=O)c3)CC2)cc1` [Example 211, 4-{4-[((2R)-2-Hydroxy-2-{4-hydroxy-3-[(methylsulfonyl)amino]phenyl}ethyl)amino]-1-piperidinyl}-N-[(1S)-1-(hydroxymethyl)-3-methylbutyl]benzamide], the melting point was in the range of 120 to 122 °C. In addition, the “IA(β3)” value in data set [1] is 1.

Molecule `CS(=O)(=O)Nc1cc([C@@H](O)CNC2CCN(c3ccc(C(=O)N[C@H]4CCCCNC4=O)cc3)CC2)ccc1O` [Example 212] gave a melting point of 135 to 137 °C. Moreover, in data set [1], the “IA(β3)” value came to 1.1.

The molecule `CCCCN(Cc1nnn[nH]1)C(=O)c1ccc(N2CCC(NC[C@H](O)c3ccc(O)c(NS(C)(=O)=O)c3)CC2)cc1` [Example 213, N-Butyl-4-{4-[((2R)-2-hydroxy-2-{4-hydroxy-3-[(methylsulfonyl)amino]phenyl}-ethyl)amino]-1-piperidinyl}-N-(1H-tetraazol-5-ylmethyl)benzamide] yielded a melting point of 168 to 170 °C. Further, the “IA(β3)” value in data set [1] was determined as 0.97.

For the molecule `CCCC(=O)Nc1ccc(N2CCC(NC[C@H](O)COc3cccc4[nH]c(=O)[nH]c34)CC2)cc1` [Example 386, N-{4-[4-({(2S)-2-Hydroxy-3-[(2-oxo-2,3-dihydro-1H-benzimidazol-4-yl)oxy]propyl}-amino)-1-piperidinyl]phenyl}butanamide], the melting point is 190 to 201 °C. In data set [1], the “IA(β3)” value is listed as 0.89.

Turning to `CCCC(=O)Nc1ccc(N2CCC(NC[C@H](O)COc3cccc4[nH]c5ccccc5c34)CC2)cc1` [Example 387, N-[4-(4-{[(2S)-3-(9H-Carbazol-4-yloxy)-2-hydroxypropyl]amino}-1-piperidinyl)phenyl]butanamide], the melting point is 194 to 199 °C. Moreover, in data set [1], the “IA(β3)” value amounted to 0.56.

The molecule `COc1ccc(C(=O)Nc2ccc(N3CCC(NC[C@H](O)COc4ccc(O)cc4)CC3)cc2)cc1OC` [Example 388, N-[4-(4-{[(2S)-2-Hydroxy-3-(4-hydroxyphenoxy)propyl]amino}-1-piperidinyl)phenyl]-3,4-dimethoxybenzamide] came in with a melting point of 77 to 84 °C. The “IA(β3)” value in data set [1] worked out at 0.75.

`COc1ccc(C(=O)Nc2ccc(N3CCC(NC[C@H](O)COc4cccc5[nH]c6ccccc6c45)CC3)cc2)cc1OC` [Example 389, N-[4-(4-{[(2S)-3-(9H-Carbazol-4-yloxy)-2-hydroxypropyl]amino}-1-piperidinyl)phenyl]3,4-dimethoxybenzamide] returned a melting point of 183 to 191 °C. Also, the “IA(β3)” value in data set [1] stood at 0.61.

On to `O=C(Nc1ccc(N2CCC(NC[C@H](O)COc3cccc4[nH]c(=O)[nH]c34)CC2)cc1)c1ccc2c(c1)OCO2` [Example 390, N-{4-[4-({(2S)-2-Hydroxy-3-[(2-oxo-2,3-dihydro-1H-benzimidazol-4-yl)oxy]propyl}-amino)-1-piperidinyl]phenyl}-1,3-benzodioxole-5-carboxamide], for which the melting point lay within 160 to 169 °C. Also, the “IA(β3)” value in data set [1] is recorded as 0.82.

With `O=C(Nc1ccc(N2CCC(NC[C@H](O)COc3cccc4[nH]c5ccccc5c34)CC2)cc1)c1ccc2c(c1)OCO2` [Example 391, N-[4-(4-{[(2S)-3-(9H-Carbazol-4-yloxy)-2-hydroxypropyl]amino}-1-piperidinyl)phenyl]-1,3-benzodioxole-5-carboxamide], the melting point lay within 217 to 223 °C. The “IA(β3)” value in data set [1] was 0.81.

On to `O=C(CCC1CCCC1)Nc1ccc(N2CCC(NC[C@H](O)COc3cccc4[nH]c(=O)[nH]c34)CC2)cc1` [Example 392, 3-Cyclopentyl-N-{4-[4-({(2S)-2-hydroxy-3-[(2-oxo-2,3-dihydro-1H-benzimidazol-4-yl)oxy]propyl}amino)-1-piperidinyl]phenyl}propanamide], for which the melting point was 140 to 144 °C. In data set [1], the “IA(β3)” value is reported as 0.9.

Consider `CS(=O)(=O)Nc1cc([C@@H](O)CNC2CCN(c3ccc(NC(=O)CCC4CCCC4)cc3)CC2)ccc1O` [Example 393, 3-Cyclopentyl-N-(4-{4-[((2R)-2-hydroxy-2-{4-hydroxy-3-[(methylsulfonyl)amino]phenyl}-ethyl)amino]-1-piperidinyl}phenyl)propanamide], for which the melting point lay in the range of 82 to 90 °C. In data set [1], the “IA(β3)” value was found to be 1.
